According to paper PMC9374667 (Communications Biology, 2022):
Several values for one entry are separate records, joined by “and”; a condition that tells them apart may be missing. Identical values can stand only once.

Legend:
[1] = Berberine content in adipose tissue of db/db mice (HPLC); details: BJ 75 and 150 mg/kg, BBR 150 mg/kg, crushing, extracting
Source text: Response: We thank the Reviewer for this comment. In line with the Reviewer ’s
each group by crushing, extracting, and HPLC analysis.
based on the improved bioavailability.
Figure 1. (a) The positions of the peaks of berberine standards in the HPLC assay.

[2] = no reference given; cited from earlier work
[3] = In vivo pharmacokinetics studies after gavage; details: male, SD, rat, plasma, po
Protocol: The pharmacokinetic parameters were calculated by the statistical moment method of non-atrioventricular model.
Blood samples (0.5 mL) were collected from the retro-orbital venous plexus at appropriate time points and placed in collection tubes with anticoagulants. Plasma was obtained from the blood samples by centrifuged (4000 rpm, 10 min, 4 °C) and stored at −20 °C until analysis. 400 µL of acetonitrile was added to 200 µL of rat plasmas, and vortexed for 90 s and finally centrifuged at 12,000 rpm for about 10 min. 20 µL of the supernatant was used to determinate the concentration of berberine in plasma by using the liquid chromatography-mass spectrometry (Waters XBridge, Waters, USA).
The maximum peak concentration (Cmax) and the time of reaching Cmax (Tmax) can be obtained from the measured data. The area under the concentration-time curve (AUC0→t) was estimated by the trapezoidal summation. The area under the curve from time zero to infinity (AUC0→∞) was also determined..

[4] = cited from earlier work
db/db mice = test: Indirect calorimetry (CLAMS): VO2, VCO2, RER; assay type: in vivo; set-up: Figure 3g (VCO2), individual mice 1-6: unit not given here; details: for Figure 3g (VCO2), individual mice 1-6 / Figure 3e (VO2), individual mice 1-6: BBR 150mg/kg; for Figure 3e (VO2), individual mice 1-6: in mL/kg/h (unit assumed); for Average RER (VCO2/VO2) / Average VCO2 / Average VO2: 150 mg/kg for 5 weeks, individual mice, 150 mg/kg
Protocol: At week 5 of treatment, basal metabolic parameters of mice were measured using the Comprehensive Lab Animal Monitoring System (CLAMS, Columbus Instruments, Columbus, OH). […] The number of times the infrared beams were broken along the X- or Y-axis was used to measure the dynamic activity of mice. The respiratory exchange rate (RER) was calculated using classical Lusk theory and equations RER = VCO2/VO2.

cAMP, glycerol release = test: cAMP levels and glycerol release in TNF-α induced 3T3-L1 adipocytes (isoproterenol); assay type: cell-based, Murine
Protocol: The epididymal adipose tissue was dissected, the fresh adipose tissue was weighed and rapidly rinsed with PBS. The adipose tissue was cut and incubated with isoproterenol (10 μM) for 2 h, and homogenized in a cold cleavage buffer to prepare the adipose tissue homogenate. Then the homogenate was centrifuged at 12,000 × g at 4 °C for 15 min, and the supernatant was collected. […] Then the cells were lysed in a petri dish, scraped off, and centrifuged at 12,000 × g at 4 °C for 15 min before the supernatant was collected. […] And concentrations were further standardized according to protein concentration.

COc1ccc2cc3[n+](cc2c1OC)CCc1cc2c(cc1-3)OCO2 [BBR, Berberine chloride dihydrate]
BBR in adipose tissue (accumulation) [1]: not detected | Oral bioavailability [2]: below 1% | Tmax [3]: 30 ± 4.8 min | Maximum plasma concentration (Cmax) ([4]; acute oral BBR (400 mg) provocation tests): approximately 0.4 ng/ml | Share of the oral dose that enters the systemic circulation ([4]; human subjects): less than 5% | Steady-state concentration in human plasma ([4]; oral BBR 300 mg/d for seven days): approximately 0.3 ng/ml | Figure 3g (VCO2), individual mice 1-6 (db/db mice; TIME 09:00:00): 2187 and 1798.5 and 1382 and 1550.5 and 1282 and 1729 | Figure 3e (VO2), individual mice 1-6 (db/db mice; TIME 09:00:00): 2463.5 and 1992.5 and 1618.5 and 1830.5 and 1604 and 1996.5 | Figure 3g (VCO2), individual mice 1-6 (db/db mice; TIME 10:00:00): 2025.5 and 1306.5 and 1293 and 1507.5 and 1152.5 and 1351.5 | Figure 3e (VO2), individual mice 1-6 (db/db mice; TIME 10:00:00): 2239.5 and 1396.5 and 1525.5 and 1818.5 and 1443 and 1558.5 | Figure 3g (VCO2), individual mice 1-6 (db/db mice; TIME 11:00:00): 1508.5 and 1801 and 1600.5 and 1450.5 and 1810.5 and 2131.5 | Figure 3e (VO2), individual mice 1-6 (db/db mice; TIME 11:00:00): 1686.5 and 2034 and 1941 and 1727 and 2185.5 and 2486.5 | Figure 3g (VCO2), individual mice 1-6 (db/db mice; TIME 12:00:00): 1560 and 1682.5 and 1287 and 1655.5 and 1234 and 1351 | Figure 3e (VO2), individual mice 1-6 (db/db mice; TIME 12:00:00): 1799.5 and 1905 and 1604.5 and 1986.5 and 1472.5 and 1528 | Figure 3g (VCO2), individual mice 1-6 (db/db mice; TIME 13:00:00): 1425.5 and 1753 and 2069 and 1636 and 1111.5 and 1447.5 | Figure 3e (VO2), individual mice 1-6 (db/db mice; TIME 13:00:00): 1585 and 1943.5 and 2523.5 and 1919 and 1415 and 1703 | Figure 3g (VCO2), individual mice 1-6 (db/db mice; TIME 14:00:00): 1628.5 and 1269.5 and 1997.5 and 1334 and 1382 and 1265.5 | Figure 3e (VO2), individual mice 1-6 (db/db mice; TIME 14:00:00): 1785 and 1394 and 2318.5 and 1559 and 1696.5 and 1512.5 | Figure 3g (VCO2), individual mice 1-6 (db/db mice; TIME 15:00:00): 1579.5 and 1285 and 1642.5 and 1147.5 and 2064.5 and 1675 | Figure 3e (VO2), individual mice 1-6 (db/db mice; TIME 15:00:00): 1826 and 1499.5 and 1948.5 and 1433.5 and 2445.5 and 1943 | Figure 3g (VCO2), individual mice 1-6 (db/db mice; TIME 16:00:00): 1579 and 1741 and 1899.5 and 1326 and 1630.5 and 1658.5 | Figure 3e (VO2), individual mice 1-6 (db/db mice; TIME 16:00:00): 1816.5 and 2044.5 and 2249 and 1622.5 and 1845.5 and 1914 | Figure 3g (VCO2), individual mice 1-6 (db/db mice; TIME 17:00:00): 1290.5 and 1905.5 and 1610 and 1666.5 and 1315 and 1412.5 | Figure 3e (VO2), individual mice 1-6 (db/db mice; TIME 17:00:00): 1507 and 2598 and 1769 and 2019 and 1551.5 and 1596.5 | Figure 3g (VCO2), individual mice 1-6 (db/db mice; TIME 18:00:00): 1292.5 and 1365.5 and 1937 and 1461.5 and 1206 and 1444 | Figure 3e (VO2), individual mice 1-6 (db/db mice; TIME 18:00:00): 1496 and 1510 and 2285 and 1793 and 1482.5 and 1701 | Figure 3g (VCO2), individual mice 1-6 (db/db mice; TIME 19:00:00): 1404 and 1310 and 1770.5 and 1481 and 1876 and 2094 | Figure 3e (VO2), individual mice 1-6 (db/db mice; TIME 19:00:00): 1643.5 and 1465 and 2034 and 1838.5 and 2235 and 2481.5 | Figure 3g (VCO2), individual mice 1-6 (db/db mice; TIME 20:00:00): 1181 and 2034.5 and 1933 and 1597 and 1575 and 1493.5 | Figure 3e (VO2), individual mice 1-6 (db/db mice; TIME 20:00:00): 1393.5 and 2338.5 and 2268.5 and 1885.5 and 1848 and 1679 | Figure 3g (VCO2), individual mice 1-6 (db/db mice; TIME 21:00:00): 1529.5 and 1566 and 1830 and 1676.5 and 1825.5 and 1630.5 | Figure 3e (VO2), individual mice 1-6 (db/db mice; TIME 21:00:00): 1863.5 and 1748.5 and 2189 and 2027 and 2201.5 and 1886 | Figure 3g (VCO2), individual mice 1-6 (db/db mice; TIME 22:00:00): 1627 and 2225 and 1746.5 and 1760.5 and 1520.5 and 2058.5 | Figure 3e (VO2), individual mice 1-6 (db/db mice; TIME 22:00:00): 1913.5 and 2540.5 and 2028.5 and 2082.5 and 1881 and 2440 | Figure 3g (VCO2), individual mice 1-6 (db/db mice; TIME 23:00:00): 1717.5 and 1505 and 2209 and 1848.5 and 1914.5 and 1764 | Figure 3e (VO2), individual mice 1-6 (db/db mice; TIME 23:00:00): 1949 and 1704 and 2610 and 2181 and 2319.5 and 2010 | Figure 3g (VCO2), individual mice 1-6 (db/db mice; TIME 1900-01-01): 2124.5 and 2214 and 2120 and 1937 and 2080.5 and 2184 | Figure 3g (VCO2), individual mice 1-6 (db/db mice; TIME 1900-01-01 01:00:00): 2199 and 2168 and 2133.5 and 2137.5 | Figure 3e (VO2), individual mice 1-6 (db/db mice; TIME 1900-01-01 01:00:00): 2537.5 and 2453.5 and 2566.5 and 2667.5 | Figure 3e (VO2), individual mice 1-6 (db/db mice; TIME 1900-01-01): 2407.5 and 2513.5 and 2566 and 2292.5 and 2527.5 and 2541 | Average RER (VCO2/VO2) (db/db mice; db/db mice, day (light)): 0.8616 and 0.8798 and 0.8875 and 0.8398 and 0.8298 and 0.8335 | Average VCO2 (db/db mice; db/db mice, day (light)): 27.0427 mL/min/kg and 26.0915 mL/min/kg and 26.8287 mL/min/kg and 27.4625 mL/min/kg and 24.4077 mL/min/kg and 25.0565 mL/min/kg | Average VO2 (db/db mice; db/db mice, day (light)): 31.4158 mL/min/kg and 29.6362 mL/min/kg and 30.277 mL/min/kg and 32.69 mL/min/kg and 29.3548 mL/min/kg and 30.0223 mL/min/kg | Average RER (VCO2/VO2) (db/db mice; db/db mice, night (dark)): 0.8596 and 0.865 and 0.8782 and 0.8452 and 0.8334 and 0.8299 | Average VCO2 (db/db mice; db/db mice, night (dark)): 30.8835 mL/min/kg and 33.2053 mL/min/kg and 32.3175 mL/min/kg and 33.4173 mL/min/kg and 30.4887 mL/min/kg and 29.875 mL/min/kg | Average VO2 (db/db mice; db/db mice, night (dark)): 35.933 mL/min/kg and 38.3562 mL/min/kg and 36.82 mL/min/kg and 39.5103 mL/min/kg and 36.573 mL/min/kg and 36.013 mL/min/kg | Oxygen consumption (VO2) and carbon dioxide elimination (VCO2) levels (db/db mice; db/db mice, light-dark cycle, 5 weeks of treatment, vs vehicle): significantly higher than those in the vehicle-treated group

CC(C)Cc1ccc(C(C)C(=O)[O-])cc1.COc1ccc2cc3[n+](cc2c1OC)CCc1cc2c(cc1-3)OCO2.O.O.O.O [BJ, berberine-ibuprofen]
Glycerol release in differentiated 3T3-L1 adipocytes induced by TNF-α (cAMP, glycerol release; BJ): 92.8546 µmol/L and 97.0733 µmol/L and 93.6983 µmol/L | cAMP levels in differentiated 3T3-L1 adipocytes induced by TNF-α (cAMP, glycerol release; BJ): 0.2237 pmol/mg protein and 0.2235 pmol/mg protein and 0.2307 pmol/mg protein | Glycerol release in differentiated 3T3-L1 adipocytes induced by TNF-α (cAMP, glycerol release; BJ+TNF-α(50ng/ml)): 63.3237 µmol/L and 59.9487 µmol/L and 58.2612 µmol/L | cAMP levels in differentiated 3T3-L1 adipocytes induced by TNF-α (cAMP, glycerol release; BJ+TNF-α(50ng/ml)): 0.1653 pmol/mg protein and 0.1544 pmol/mg protein and 0.1605 pmol/mg protein | Glycerol release in differentiated 3T3-L1 adipocytes induced by TNF-α (cAMP, glycerol release; ISO+BJ): 186.51 µmol/L and 191.572 µmol/L and 183.135 µmol/L | cAMP levels in differentiated 3T3-L1 adipocytes induced by TNF-α (cAMP, glycerol release; ISO+BJ): 0.3839 pmol/mg protein and 0.37 pmol/mg protein and 0.3787 pmol/mg protein | Glycerol release in differentiated 3T3-L1 adipocytes induced by TNF-α (cAMP, glycerol release; ISO+BJ+TNF-α(50ng/ml)): 167.104 µmol/L and 166.26 µmol/L | cAMP levels in differentiated 3T3-L1 adipocytes induced by TNF-α (cAMP, glycerol release; ISO+BJ+TNF-α(50ng/ml)): 0.248 pmol/mg protein and 0.2422 pmol/mg protein and 0.2461 pmol/mg protein | Glycerol release and cAMP levels (cAMP, glycerol release; TNF-α induced 3T3-L1 adipocytes, BJ pretreatment, isoproterenol stimulation): promoted glycerol release, increased cAMP levels
